We go through 33 compounds from PMC8126888 (RSC Medicinal Chemistry, 2020).

Data set [1] concerns L. donovani MHOM/ET/67/L82 intracellular amastigotes. Conditions: read-out: L. donovani MHOM/ET/67/L82 intracellular amastigotes IC50.
Data set [2] relates to MRC-5SV2 cells. Nature of the data set: Cytotoxicity assay on MRC-5SV2 cells (resazurin).
Data set [3] relates to primary peritoneal mouse macrophages (PMM). Conditions: read-out: PMM IC50.
For data set [4], the system named is Leishmania infantum MHOM/MA(BE)/67/ITMAP263 intracellular amastigotes. As to conditions: for IC50: read-out: L. infantum MHOM/MA(BE)/67/ITMAP263 intracellular amastigotes IC50.
A short description of data set [5]: in vitro. Conditions: Swiss, mouse.

Structures are written as SMILES. Some results are limits rather than exact numbers.

`CCOC(=O)c1c(C)[nH]c(C(=O)Nc2ccc(Cl)c(S(=O)(=O)N3CCCCC3)c2)c1C` [Compound Z30461235]: the IC50 stood at 3.39 µM in data set [1], 16 µM in data set [3] and 2.99 µM in data set [4]. This compound also came in with a CC50 in data set [2] of 2.17 µM. The “L. Inf. pIC50” value in data set [4] is reported as 5.52.
Taken in the same sequence, the figures for `Cc1ccc(NC(=O)CN2CCCCc3ccccc32)cc1S(=O)(=O)N1CCOCC1` [Compound Z1318043362] were 25.4 µM, 16 µM, 16.6 µM, > 32 µM and 4.78.
The like results for `Cc1ccc(NC(=O)CN(CC(C)C)c2cccc(O)c2)cc1S(=O)(=O)N(C)C` [Compound Z1317978681] were, in that order, 19 µM, > 32 µM, 16.1 µM, 28.4 µM and 4.79.
Regarding `COC(=O)c1c(C)[nH]c(C(=O)Nc2cccc(S(=O)(=O)N3CCCC3)c2)c1C` [Compound Z30224758], the IC50 in data set [1], in data set [3] and in data set [4] was > 32 µM throughout. In addition, the CC50 in data set [2] is > 32 µM.
`COC(=O)c1cccc(C(=O)Nc2cccc(S(=O)(=O)N3CCCC3)c2)n1` [Compound Z441654950]: the IC50 in data set [1], in data set [3] and in data set [4] was > 32 µM in each case. Besides, the CC50 in data set [2] is > 32 µM.
On to `CCCCNS(=O)(=O)c1cccc(NC(=O)c2cc(C)c(C)s2)c1` [Compound Z88584860], for which the IC50 in data set [1], in data set [3] and in data set [4] was > 32 µM in each case. The CC50 in data set [2] is > 32 µM.
For `COc1ccc(OC)c(S(=O)(=O)N(Cc2ccccc2)Cc2ccccc2)c1` [Compound Z45508995], the IC50 in data set [1] is 1.19 µM; in data set [3], > 32 µM; in data set [4], 1.01 µM. The compound also had a CC50 in data set [2] of 6.41 µM. In data set [4], the “L. Inf. pIC50” value is 6.
In the case of `Fc1cccc(Cl)c1CNc1ccccc1-n1cccn1` [Compound Z739504072], the IC50 in data set [1], in data set [3] and in data set [4] was > 32 µM throughout. Also, the CC50 in data set [2] was > 32 µM.
Regarding `CCCCNS(=O)(=O)c1cccc(NC(=O)c2cnc(C)cn2)c1` [Compound Z88583029], the IC50 in data set [1], in data set [3] and in data set [4] was > 32 µM throughout. Also, the CC50 in data set [2] is > 32 µM.
Regarding `CN(Cc1ccccc1NCC(=O)Nc1cccc(S(=O)(=O)N(C)C)c1)C1CCCCC1` [Compound Z31013342], the IC50 is > 32 µM in data set [1], > 32 µM in data set [3] and 21.5 µM in data set [4]. Further, the CC50 in data set [2] is > 32 µM. Besides, the “L. Inf. pIC50” value in data set [4] was 4.67.
With `CN(C)S(=O)(=O)c1cccc(NC(=O)CN2CCCc3cc(F)cc(F)c32)c1` [Compound Z369155588], the IC50 in data set [1], in data set [3] and in data set [4] was > 32 µM each time. For the same compound, in data set [2], the CC50 was > 32 µM.
For the compound `COc1ccc(S(=O)(=O)N(Cc2cccc(F)c2)Cc2cccc(F)c2)cc1OC` [Compound Z220633200], the results for the IC50 in data set [1], in data set [3] and in data set [4] were 25.4 µM, > 32 µM and 10.1 µM, respectively. Further, the CC50 in data set [2] was > 32 µM. Also, in data set [4], the “L. Inf. pIC50” value turned out to be 4.99.
On to `CC1Cc2ccccc2N1CC(=O)Nc1ccc(Cl)c(S(=O)(=O)N(C)C)c1` (stereo not shown) [Compound Z30956600], for which the IC50 in data set [1], in data set [3] and in data set [4] was > 32 µM in each case. The CC50 in data set [2] was > 32 µM.
As for `CCN(CC)S(=O)(=O)c1cc(NC(=O)c2[nH]c(C)c(C(=O)OC)c2C)ccc1C` [Compound Z26467494], the results for the IC50 in data set [1], in data set [3] and in data set [4] were 12 µM, > 32 µM and 16.1 µM, respectively. This compound also returned a CC50 in data set [2] of 10.9 µM. Moreover, the “L. Inf. pIC50” value in data set [4] is given as 4.79.
On to `CCCCNS(=O)(=O)c1cccc(NC(=O)c2ccc(C)c(OC)c2)c1` [Compound Z109591588], for which the IC50 in data set [1], in data set [3] and in data set [4] was > 32 µM throughout. In addition, the CC50 in data set [2] was > 32 µM.
Consider `CC1CCc2ccccc2N1CC(=O)N1CCCc2cc(S(=O)(=O)N(C)C)ccc21` (stereo not shown) [Compound Z195652240], for which the IC50 in data set [1], in data set [3] and in data set [4] was > 32 µM throughout. In addition, the CC50 in data set [2] was > 32 µM.
`CC/C(=C(\c1ccccc1)c1ccc(OCCN(C)C)cc1)c1ccccc1` [Tamoxifen, reference compound] came in with a CC50 at 5 days in data set [5] of 5 to 10 µM.
Consider `CN(C)S(=O)(=O)c1cccc(NC(=O)CNc2cccc3c2CCCC3)c1` [Compound Z30985744], for which the IC50 in data set [1], in data set [3] and in data set [4] was > 32 µM throughout. Also, in data set [2], the CC50 was > 32 µM.
On to `Cc1ccc(NC(=O)c2[nH]c(C)c(C(=O)OC(C)C)c2C)cc1S(=O)(=O)N1CCCCC1` [Compound Z51733284], for which the IC50 in data set [1] worked out at 16.2 µM; in data set [3], 16 µM; in data set [4], 10.2 µM. The CC50 in data set [2] stood at 3.11 µM. The “L. Inf. pIC50” value in data set [4] came out at 4.99.
`CCCc1c(C(=O)Nc2cccc(S(=O)(=O)NCc3ccco3)c2)[nH]c(C)c1C(C)=O` [Compound Z966334826]: the IC50 in data set [1] is > 32 µM; in data set [3] it was > 32 µM; in data set [4], 14.5 µM. The compound further gave a CC50 in data set [2] of 12.8 µM. Moreover, in data set [4], the “L. Inf. pIC50” value amounted to 4.84.
As for `CCOc1ccc(NC(=O)c2[nH]c(C)c(C(=O)OC)c2C)cc1S(=O)(=O)N1CCCC1` [Compound Z29178369], the IC50 in data set [1], in data set [3] and in data set [4] was > 32 µM in each case. Further, in data set [2], the CC50 is > 32 µM.
As for `COc1ccccc1S(=O)(=O)N(Cc1ccccc1)Cc1ccccc1` [Compound Z45508946], the IC50 in data set [1] was 1.59 µM; in data set [3], > 32 µM; in data set [4], 0.34 µM. Moreover, in data set [2], the CC50 was > 32 µM. Also, the “L. Inf. pIC50” value in data set [4] was found to be 6.47.
Regarding `COC(=O)c1c(C)[nH]c(C(=O)Nc2cccc(S(C)(=O)=O)c2)c1C` [Compound Z109929482], the IC50 in data set [1], in data set [3] and in data set [4] was > 32 µM in each case. In addition, the CC50 in data set [2] is > 32 µM.
`CCCCNS(=O)(=O)c1cccc(NC(=O)c2cc3ccccc3[nH]2)c1` [Compound Z88584859]: the IC50 was 25.4 µM in data set [1], > 32 µM in data set [3] and 16.2 µM in data set [4]. For the same compound, the CC50 in data set [2] is > 32 µM. For the same compound, the “L. Inf. pIC50” value in data set [4] was determined as 4.79.
With `CC1CCc2ccccc2N1CC(=O)Nc1ccc(Cl)c(S(=O)(=O)N(C)C)c1` (stereo not shown) [Compound Z46500410], the IC50 in data set [1], in data set [3] and in data set [4] was > 32 µM each time. Further, the CC50 in data set [2] was > 32 µM.
For the compound `COc1ccc(S(=O)(=O)N(Cc2ccccc2C#N)Cc2ccccc2C#N)cc1OC` [Compound Z220633250], the IC50 in data set [1] is > 32 µM; in data set [3], > 32 µM; in data set [4], 4.76 µM. For the same compound, the CC50 in data set [2] is > 32 µM. In data set [4], the “L. Inf. pIC50” value worked out at 5.32.
For `CCc1c(C(=O)Nc2cc(S(=O)(=O)NC)ccc2C)[nH]c(C)c1C(C)=O` [Compound Z792473370], the IC50 in data set [1] was > 32 µM; in data set [3], > 32 µM; in data set [4], 21.5 µM. In addition, the CC50 in data set [2] was > 32 µM. In addition, the “L. Inf. pIC50” value in data set [4] amounted to 4.67.
Consider `COc1ccc(S(=O)(=O)N(C)C)cc1NC(=O)CN1C(=O)COc2ccccc21` [Compound Z29560624], for which the IC50 in data set [1], in data set [3] and in data set [4] was > 32 µM throughout. Also, in data set [2], the CC50 was > 32 µM.
Take `COc1ccc(S(=O)(=O)N(C)C)cc1NC(=O)Cn1c(=O)cnc2ccccc21` [Compound Z19025005]: the IC50 in data set [1], in data set [3] and in data set [4] was > 32 µM in each case. Also, the CC50 in data set [2] is > 32 µM.
For the compound `CNC(=O)NC(=O)COc1ccc(S(N)(=O)=O)cc1` [Compound Z381095182], the IC50 in data set [1], in data set [3] and in data set [4] was > 32 µM throughout. For the same compound, the CC50 in data set [2] is > 32 µM.
Turning to `O=S(=O)(NCc1cccs1)c1ccc2c(c1)CCCC2` [Compound Z45423905], the IC50 in data set [1], in data set [3] and in data set [4] was > 32 µM in each case. The compound further returned a CC50 in data set [2] of 27.1 µM.
Take `CCOC(=O)c1c(C)[nH]c(C(=O)NNC(=O)c2cccc(S(=O)(=O)N(CC)CC)c2)c1C` [Compound Z30581529]: the IC50 in data set [1], in data set [3] and in data set [4] was > 32 µM in each case. For the same compound, the CC50 in data set [2] is > 32 µM.
With `CCOC(=O)c1c(C)[nH]c(C(=O)Nc2cccc(S(=O)(=O)N3CCOCC3)c2)c1C` [Compound Z30001211], the IC50 in data set [1], in data set [3] and in data set [4] was > 32 µM each time. This compound also had a CC50 in data set [2] of 18.1 µM.
